Test systems include SK-MEL-28 melanoma; T-47D breast; NCI-H226 lung; OVCAR-5 ovarian; K-562 leukemia; KM12 colon; CAKI-1 renal; OVCAR-8 ovarian; SK-MEL-2 melanoma; HS 578T breast.
Experiment in all cases: DTP human tumour cell line panel, 48 h

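In this assay, cells in 96-well plates receive the compound at five concentrations for 48 hours. Endpoints are linearly interpolated between the surrounding concentrations. At the GI50, growth is halved. TGI denotes the concentration required for complete inhibition of growth.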 Where only a bound is given, the exact number is not on record here.

Broadly, the TGI is the concentration at which net growth stops. Read a high TGI as lower sensitivity of the cells. A word on the GI50: it is the concentration at which growth is held to half of that of the control.

Turning to `O=C1OC(=O)c2c1cc1cc3c(cc1c2-c1ccc2c(c1)OCO2)OCO3`, the TGI in the experiment on SK-MEL-28 melanoma, in the experiment on T-47D breast, in the experiment with NCI-H226 lung, in the experiment on OVCAR-5 ovarian, with K-562 leukemia and in the experiment with KM12 colon was above 100 µM each time. The TGI with CAKI-1 renal, with OVCAR-8 ovarian and in the experiment with SK-MEL-2 melanoma was above 100 µM throughout.
For the compound `O=C(/C=C/c1cccc(Cl)c1)c1ccccc1`, the GI50 was 15.9 µM in the experiment with SK-MEL-28 melanoma; 12.7 µM with T-47D breast; 14.4 µM in the experiment with NCI-H226 lung; 2.1 µM in the experiment on HS 578T breast; 11.2 µM in the experiment on OVCAR-5 ovarian; 2.86 µM with K-562 leukemia. The figures for the GI50 in the experiment on KM12 colon, in the experiment with CAKI-1 renal and with OVCAR-8 ovarian were 1.96 µM, 2.73 µM and 3.32 µM, respectively. The TGI in the experiment on SK-MEL-28 melanoma came to 30.2 µM; with T-47D breast, 32.2 µM; in the experiment on NCI-H226 lung, 29.6 µM; with HS 578T breast, 7.45 µM; in the experiment on OVCAR-5 ovarian, 24.5 µM; in the experiment on K-562 leukemia, 18.9 µM. For the same compound, the TGI is 4.86 µM in the experiment with KM12 colon, 11.5 µM in the experiment on CAKI-1 renal and 11.4 µM in the experiment with OVCAR-8 ovarian.
With `CC(C)(C)c1ccc(OCCCCCCCN2CCNCC2)cc1`, the GI50 in the experiment with T-47D breast was 1.76 µM; in the experiment on NCI-H226 lung it was 1.86 µM; in the experiment with HS 578T breast, 1.92 µM; in the experiment on K-562 leukemia it was 1.56 µM; with KM12 colon, 1.85 µM; in the experiment with CAKI-1 renal, 1.46 µM. Also, the GI50 in the experiment with SK-MEL-2 melanoma was 1.74 µM. Further, the total growth inhibition concentration (TGI) in the experiment on T-47D breast was 3.93 µM; with NCI-H226 lung it was 4.1 µM; with HS 578T breast, 4.77 µM; in the experiment with K-562 leukemia, 3.81 µM; in the experiment on KM12 colon, 3.6 µM; in the experiment on CAKI-1 renal, 2.81 µM. Besides, in the experiment with SK-MEL-2 melanoma, the TGI came to 3.47 µM.
`CCOC(=O)CCC(NC(=O)c1ccc(Oc2nc3cc(N)cc(N)c3nc2-c2ccccc2)cc1)C(=O)OCC` (stereo not given): the GI50 in the experiment with SK-MEL-28 melanoma is 14.3 µM; in the experiment on T-47D breast, 24.6 µM; in the experiment on NCI-H226 lung, 2.94 µM; in the experiment with HS 578T breast it was 43.7 µM; with OVCAR-5 ovarian it was 96.8 µM; with KM12 colon, 27.4 µM. Further, the GI50 was 49.5 µM with CAKI-1 renal, 38.2 µM in the experiment with OVCAR-8 ovarian and 40.7 µM with SK-MEL-2 melanoma. Further, the concentration for total growth inhibition (TGI) in the experiment on SK-MEL-28 melanoma is 30.5 µM; in the experiment with T-47D breast, 59.7 µM; in the experiment on NCI-H226 lung, 25 µM; with HS 578T breast, above 100 µM; with OVCAR-5 ovarian, above 100 µM; in the experiment on KM12 colon, above 100 µM. The concentration for total growth inhibition (TGI) in the experiment on CAKI-1 renal, in the experiment on OVCAR-8 ovarian and in the experiment with SK-MEL-2 melanoma was above 100 µM each time.
`Cc1nc2ccccc2c(/C=C/c2ccc(C(F)(F)F)cc2)c1C(=O)/C=C/c1ccccc1`: the GI50 with SK-MEL-28 melanoma was 1.77 µM; in the experiment on T-47D breast, 1.07 µM; in the experiment with NCI-H226 lung, 1.6 µM; in the experiment with HS 578T breast it was 1.92 µM; with OVCAR-5 ovarian, 1.86 µM; in the experiment on CAKI-1 renal, 1.23 µM. For the same compound, the results for the GI50 with OVCAR-8 ovarian and in the experiment with SK-MEL-2 melanoma were 1.64 µM and 1.76 µM, respectively. Also, the TGI was determined as 3.22 µM with SK-MEL-28 melanoma; 3.13 µM with T-47D breast; 3.14 µM with NCI-H226 lung; 5.75 µM in the experiment on HS 578T breast; 3.35 µM with OVCAR-5 ovarian; 2.51 µM in the experiment on CAKI-1 renal. The TGI with OVCAR-8 ovarian worked out at 4.91 µM; in the experiment with SK-MEL-2 melanoma, 3.64 µM.
Regarding `C=CCC(NCc1ccccc1)c1cn(C(=O)OCC)c2ccccc12` (stereo not given), the GI50 is 41.5 µM with SK-MEL-28 melanoma; 33.3 µM in the experiment on T-47D breast; 20 µM in the experiment with HS 578T breast; 16 µM in the experiment with OVCAR-5 ovarian; 2.37 µM in the experiment with K-562 leukemia; 28.4 µM in the experiment with KM12 colon. Moreover, the GI50 with CAKI-1 renal is 18.5 µM; with OVCAR-8 ovarian, 24.1 µM; in the experiment on SK-MEL-2 melanoma, 33.1 µM. The TGI with SK-MEL-28 melanoma was above 100 µM; in the experiment with T-47D breast it was above 100 µM; with HS 578T breast, 63.8 µM; in the experiment on OVCAR-5 ovarian it was 44.6 µM; with K-562 leukemia, 15 µM; in the experiment on KM12 colon, above 100 µM. For the same compound, the figures for the TGI in the experiment with CAKI-1 renal, in the experiment on OVCAR-8 ovarian and with SK-MEL-2 melanoma were 41.6 µM, 61.1 µM and above 100 µM, respectively.
On to `CN(COC(=O)C(C)(C)C)c1nc(N(C)COC(=O)C(C)(C)C)nc(N(C)COC(=O)C(C)(C)C)n1`, for which the TGI with SK-MEL-28 melanoma, in the experiment on T-47D breast, in the experiment on NCI-H226 lung, with HS 578T breast, in the experiment with OVCAR-5 ovarian and in the experiment with K-562 leukemia was above 100 µM each time. In addition, the TGI in the experiment on KM12 colon, in the experiment on CAKI-1 renal and in the experiment with SK-MEL-2 melanoma was above 100 µM throughout.
As to `Cc1ccc(-c2csc3ncnc(Nc4cccc(O)c4)c23)cc1`, the GI50 was 43.1 µM in the experiment with SK-MEL-28 melanoma; 44 µM in the experiment on T-47D breast; 38.1 µM with NCI-H226 lung; 36.5 µM with HS 578T breast; 25.5 µM with OVCAR-5 ovarian; 5.6 µM in the experiment on K-562 leukemia. Also, the GI50 in the experiment on KM12 colon is 25.7 µM; with OVCAR-8 ovarian, 32.3 µM; with SK-MEL-2 melanoma, 22.4 µM. In addition, the concentration for total growth inhibition (TGI) was above 100 µM in the experiment on SK-MEL-28 melanoma; above 100 µM in the experiment on T-47D breast; above 100 µM with NCI-H226 lung; above 100 µM in the experiment on HS 578T breast; 69.6 µM in the experiment with OVCAR-5 ovarian; above 100 µM in the experiment with K-562 leukemia. In addition, the values for the TGI with KM12 colon, in the experiment with OVCAR-8 ovarian and in the experiment with SK-MEL-2 melanoma were 69 µM, above 100 µM and 62.4 µM, respectively.
`CC(C)C[C@H](NC(=O)[C@@H](N)Cc1cccc2ccccc12)B(O)O`: the GI50 is 0.186 µM in the experiment with SK-MEL-28 melanoma; 0.432 µM in the experiment with T-47D breast; 0.174 µM in the experiment on OVCAR-5 ovarian; 0.546 µM in the experiment on KM12 colon; 0.225 µM in the experiment on CAKI-1 renal; 1.62 µM in the experiment on OVCAR-8 ovarian. Besides, in the experiment on SK-MEL-2 melanoma, the GI50 is 0.598 µM. In the experiment on NCI-H226 lung, this compound registered a TGI below 0.0186 µM.
With `CCCCCCCCCCCCNCCCc1ccccc1`, the GI50 is 1.72 µM in the experiment with SK-MEL-28 melanoma; 1.78 µM with T-47D breast; 1.87 µM in the experiment with NCI-H226 lung; 1.66 µM in the experiment with HS 578T breast; 1.68 µM in the experiment on OVCAR-5 ovarian; 1.89 µM in the experiment with K-562 leukemia. For the same compound, the GI50 in the experiment on KM12 colon was 1.75 µM; with CAKI-1 renal it was 1.79 µM; in the experiment with OVCAR-8 ovarian, 1.75 µM. Also, the concentration for total growth inhibition (TGI) is 3.23 µM in the experiment with SK-MEL-28 melanoma; 3.37 µM in the experiment on T-47D breast; 3.61 µM with NCI-H226 lung; 3.72 µM in the experiment on HS 578T breast; 3.48 µM with OVCAR-5 ovarian; 4.54 µM with K-562 leukemia. For the same compound, the TGI in the experiment with KM12 colon worked out at 3.13 µM; with CAKI-1 renal, 3.44 µM; in the experiment on OVCAR-8 ovarian, 3.39 µM.
On to `CC(C)OC(=O)NNc1c(Cl)cc(Cl)cc1Cl`, for which the TGI with SK-MEL-28 melanoma, with T-47D breast, with HS 578T breast, in the experiment on OVCAR-5 ovarian, with K-562 leukemia and in the experiment with KM12 colon was above 100 µM each time. Also, the TGI in the experiment with CAKI-1 renal, in the experiment on OVCAR-8 ovarian and in the experiment on SK-MEL-2 melanoma was above 100 µM throughout.
On to `Cc1ncc2c(n1)CCC1=C2OS(=O)(=O)CC1N(C)C` (stereo not given), for which the TGI in the experiment on SK-MEL-28 melanoma, in the experiment with T-47D breast, in the experiment on NCI-H226 lung, in the experiment with HS 578T breast, in the experiment with OVCAR-5 ovarian and in the experiment with K-562 leukemia was above 100 µM throughout. Moreover, the total growth inhibition concentration (TGI) in the experiment with KM12 colon, in the experiment with CAKI-1 renal and in the experiment on OVCAR-8 ovarian was above 100 µM throughout.
Turning to `O=C1c2ccccc2-n2c1nc1ccc([N+](=O)[O-])cc1c2=O`, the TGI with SK-MEL-28 melanoma, in the experiment on T-47D breast, with NCI-H226 lung, in the experiment on HS 578T breast, in the experiment with OVCAR-5 ovarian and in the experiment on K-562 leukemia was above 100 µM in each case. In addition, the TGI in the experiment with KM12 colon is above 100 µM; in the experiment on CAKI-1 renal, 99.7 µM; in the experiment on OVCAR-8 ovarian it was 46.6 µM.
As to `O=C(O)CC(CC(=O)O)n1cccc1`, the TGI in the experiment on SK-MEL-28 melanoma, with T-47D breast, with NCI-H226 lung, with OVCAR-5 ovarian, in the experiment on K-562 leukemia and in the experiment with KM12 colon was above 100 µM in each case. Moreover, the total growth inhibition concentration (TGI) in the experiment on CAKI-1 renal, with OVCAR-8 ovarian and in the experiment on SK-MEL-2 melanoma was above 100 µM in each case.
For `Cc1nc2sc(C(=O)Nc3cccc4c3OCCO4)c(N)c2cc1C(C)O` (stereo not given), the GI50 in the experiment with SK-MEL-28 melanoma is above 100 µM; in the experiment with T-47D breast, 5.33 µM; with NCI-H226 lung, above 100 µM; in the experiment on HS 578T breast, 3.07 µM; with OVCAR-5 ovarian, 43.2 µM; with K-562 leukemia, 1.37 µM. Also, the GI50 in the experiment on KM12 colon was 3.85 µM; in the experiment on CAKI-1 renal it was 4.91 µM; with OVCAR-8 ovarian, 6.48 µM. Moreover, the TGI with SK-MEL-28 melanoma, in the experiment with T-47D breast, with NCI-H226 lung, with HS 578T breast, in the experiment on OVCAR-5 ovarian and with K-562 leukemia was above 100 µM in each case. Besides, the TGI in the experiment with KM12 colon, in the experiment on CAKI-1 renal and with OVCAR-8 ovarian was above 100 µM in each case.
